Test results taken from US10906863B1, “Hydroxytyrosol 4-methoxycinnamic acid ester with antibacterial activity and a method of preparing the same” (SHAANXI UNIVERSITY OF SCIENCE AND TECHNOLOGY, priority 2020, dated 2021).
In brackets after ≈: the same amount, converted by molar mass.

How the values were obtained:
Format in all cases: cell-based
[1] = tested on: methicillin-resistant Staphylococcus aureus MRSA 18-222; assay: MIC by microbroth dilution, MRSA 18-222; conditions: for Minimum Bacteriostatic Concentration: strain MRSA 18-222, microbroth dilution, 37° C., 20-22 hours
Source text: (§1) The minimal inhibitory concentration (MIC) of the compound as determined by a microbroth dilution method with gentamicin, cefazolin sodium and ceftriaxone sodium as positive control.
(§2) The experimental strains included methicillin-resistant Gram-positive bacteria: methicillin-resistant Staphylococcus aureus MRSA 18-222, 18-575; multiple drug-resistant […] bacteria: vancomycin-resistant enterococci VRE 18-80,18-94, multidrug-resistant Pseudomonas aeruginosa MDR-PA 18-1774,18-202, carbapenem-resistant Acinetobacter baumannii CR-AB 18-183,18-560. All the experimental strains were donated by Huashan Hospital affiliated to Fudan University (Institute of antibiotics, Fudan University) and used after routine identification.
(§3) Preparation of MHB medium: 20.0 g MHB medium was added to 1 L distilled water, boiled until completely dissolved, packed in conical bottles and sterilized at 121° C. for 15 min.
(§4) The experimental strain was cultured to the logarithmic growth phase: under aseptic condition, the experimental strain was inoculated into 100 mL MHB medium and incubated in a constant temperature and humidity incubator at 37° C. for 20-22 hours.
(§5) Preparation of storage solution: weigh the sample to be tested, dissolve it with 1% DMSO solution, prepare a storage solution with a concentration of 2560 μg/mL, weigh a positive reference substance, dissolve it with aseptic distilled water, and configure a storage solution with a concentration of 2560 μg/mL.
(§6) Under aseptic condition, the experimental strains cultured to logarithmic growth phase were adjusted to 0.5 MCF turbidity standard with MHB medium and […], and the bacterial suspension with concentration of 10^6 CFU/mL was prepared for standby.
(§7) Dilution of storage solution and inoculation of experimental strain: under aseptic condition, the storage solution was diluted to 256 μg/mL solution. Take a sterile 96-well plate, add 200 μL MHB medium to the 12th well, and add 100 μL MHB medium to each well. Add 100 μL of positive control solution to the first well, mix well, and suck 100 μL from it and discard. Add 100 μL of the compound sample solution to the second well, mix well, and then pipette 100 μL to the third well. After mixing, pipette 100 μL to the fourth well, and dilute to the 11th well in this way. Finally, 100 μL was pipetted from the 11th well and discarded. The 12th hole was the growth control without drugs. So far, the concentration of the positive reference substance is 128 μg/mL, the concentrations of the sample solution are 128, 64, 16, 8, 4, 2, 1, 0.5, 0.25 μg/mL respectively. Then, 10 μL of the prepared bacterial suspension is added to each well, so that the final concentration of the bacterial liquid in each well is 5×10^5 CFU/mL.
(§8) Incubation: Cover the 96-well plate inoculated with the experimental strains, and incubate in a constant temperature and humidity box at 37° C. for 20-22 hours.
(§9) In FIGS. 1-10, the twelve wells represent twelve groups, from left to right, positive, 128 μg/mL, 64 μg/mL, 32 μg/mL, 16 μg/mL, 8 μg/mL, 4 μg/mL, 2 μg/mL, 1 μg/mL, 0.25 μg/mL, 0.0625 μg/mL, Negative.

[2] = tested on: drug-resistant bacteria; assay: Antibacterial activity test, whole panel of drug-resistant strains; conditions: summary over the tested drug-resistant strains
Source text: as §1, §2, §3, §4, §5, §6
Dilution of storage solution and inoculation of experimental strain: under aseptic condition, the storage solution was diluted to 256 μg/mL solution. Take a sterile 96-well plate, add 200 μL MHB medium to the 12th well, and add 100 μL MHB medium to each well. Add 100 μL of positive control solution to the first well, mix well, and suck 100 μL from it and discard. […]

[3] = tested on: multidrug-resistant Pseudomonas aeruginosa MDR-PA 18-174; assay: MIC by microbroth dilution, MDR-PA 18-174; conditions: for Minimum Bacteriostatic Concentration: strain MDR-PA 18-174, microbroth dilution, 37° C., 20-22 hours
Source text: as §1, §2, §3, §4, §5, §6, §7, §8, §9

[4] = tested on: multidrug-resistant Pseudomonas aeruginosa MDR-PA 18-202; assay: MIC by microbroth dilution, MDR-PA 18-202; conditions: strain MDR-PA 18-202, 37° C., 20-22 hours
Source text: as §1, §2, §3, §4, §5, §6, §7, §8

[5] = tested on: vancomycin-resistant enterococci VRE 18-80; assay: MIC by microbroth dilution, VRE 18-80; conditions: strain VRE 18-80, 37° C., 20-22 hours
Source text: as §1, §2, §3, §4, §5, §6, §7, §8

[6] = tested on: vancomycin-resistant enterococci VRE 18-94; assay: MIC by microbroth dilution, VRE 18-94; conditions: strain VRE 18-94, 37° C., 20-22 hours
Source text: as §1, §2, §3, §4, §5, §6, §7, §8

[7] = tested on: carbapenem-resistant Acinetobacter baumannii CR-AB 18-560; assay: MIC by microbroth dilution, CR-AB 18-560; conditions: strain CR-AB 18-560, 37° C., 20-22 hours
Source text: as §1, §2, §3, §4, §5, §6, §7, §8

[8] = tested on: methicillin-resistant Staphylococcus aureus MRSA 18-575; assay: MIC by microbroth dilution, MRSA 18-575; conditions: strain MRSA 18-575, 37° C., 20-22 hours
Source text: as §1, §2, §3, §4, §5, §6, §7, §8, §9

[9] = tested on: carbapenem-resistant Acinetobacter baumannii CR-AB 18-183; assay: MIC by microbroth dilution, CR-AB 18-183; conditions: strain CR-AB 18-183, 37° C., 20-22 hours
Source text: as §1, §2, §3, §4, §5, §6, §7, §8

Q: How did the “Minimum Bacteriostatic Concentration” value [1] turn out when `COc1ccc(C=CC(=O)O)cc1` [4-methoxycinnamic acid] was run?
A: Its value is greater than 128 µg/mL.

Q: And the “inhibitory effect on drug-resistant bacteria (result in words)” value (“inhibitory effect” below) [2]?
A: The value was “no inhibitory effect”.

Q: What about the “Minimum Bacteriostatic Concentration” value [3] of the same compound?
A: Its value is greater than 128 µg/mL.

Q: What about the “Minimum Bacteriostatic Concentration” value [4] of the same compound?
A: Its value is greater than 128 µg/mL.

Q: And the “Minimum Bacteriostatic Concentration” value [5]?
A: The value was greater than 128 µg/mL.

Q: And the “Minimum Bacteriostatic Concentration” value [6]?
A: The value was greater than 128 µg/mL.

Q: What about the “Minimum Bacteriostatic Concentration” value [7] of the same compound?
A: The value was greater than 128 µg/mL.

Q: What about the “Minimum Bacteriostatic Concentration” value [8] of the same compound?
A: The value was greater than 128 µg/mL.

Q: What about the “Minimum Bacteriostatic Concentration” value [9] of the same compound?
A: The value was greater than 128 µg/mL.

Q: Which “Minimum Bacteriostatic Concentration” value [1] does the source give for `OCCc1ccc(O)c(O)c1` [Hydroxytyrosol] here?
A: The value was greater than 128 µg/mL.

Q: What about the “inhibitory effect” value [2] of the same compound?
A: The value was “no inhibitory effect”.

Q: And the “Minimum Bacteriostatic Concentration” value [3]?
A: Its value is greater than 128 µg/mL.

Q: What about the “Minimum Bacteriostatic Concentration” value [4] of the same compound?
A: Its value is greater than 128 µg/mL.

Q: What about the “Minimum Bacteriostatic Concentration” value [5] of the same compound?
A: Its value is greater than 128 µg/mL.

Q: And the “Minimum Bacteriostatic Concentration” value [6]?
A: The value was greater than 128 µg/mL.

Q: What about the “Minimum Bacteriostatic Concentration” value [7] of the same compound?
A: The value was greater than 128 µg/mL.

Q: What about the “Minimum Bacteriostatic Concentration” value [8] of the same compound?
A: Its value is greater than 128 µg/mL.

Q: What about the “Minimum Bacteriostatic Concentration” value [9] of the same compound?
A: The value was greater than 128 µg/mL.

Q: `Cc1nnc(SCC2=C(C(=O)O)N3C(=O)[C@@H](NC(=O)Cn4cnnn4)[C@H]3SC2)s1` [Cefazolin sodium, cefazolin sodium] was tested. Which “Minimum Bacteriostatic Concentration” value [1] did it give?
A: Its value is greater than 128 µg/mL.

Q: What about the “Minimum Bacteriostatic Concentration” value [3] of the same compound?
A: The value was 8 µg/mL.

Q: What about the “Minimum Bacteriostatic Concentration” value [4] of the same compound?
A: Its value is 128 µg/mL.

Q: What about the “Minimum Bacteriostatic Concentration” value [5] of the same compound?
A: Its value is 32 µg/mL.

Q: And the “Minimum Bacteriostatic Concentration” value [6]?
A: The value was greater than 128 µg/mL.

Q: And the “Minimum Bacteriostatic Concentration” value [7]?
A: The value was greater than 128 µg/mL.

Q: What about the “Minimum Bacteriostatic Concentration” value [8] of the same compound?
A: Its value is greater than 128 µg/mL.

Q: What about the “Minimum Bacteriostatic Concentration” value [9] of the same compound?
A: The value was greater than 128 µg/mL.

Q: gentamicin was tested. Which “Minimum Bacteriostatic Concentration” value [1] did it give?
A: The value was 128 µg/mL.

Q: What about the “Minimum Bacteriostatic Concentration” value [3] of the same compound?
A: Its value is 0.0625 µg/mL.

Q: What about the “Minimum Bacteriostatic Concentration” value [4] of the same compound?
A: The value was 0.0625 µg/mL.

Q: And the “Minimum Bacteriostatic Concentration” value [5]?
A: The value was 0.0625 µg/mL.

Q: What about the “Minimum Bacteriostatic Concentration” value [6] of the same compound?
A: The value was greater than 128 µg/mL.

Q: What about the “Minimum Bacteriostatic Concentration” value [7] of the same compound?
A: The value was greater than 128 µg/mL.

Q: And the “Minimum Bacteriostatic Concentration” value [8]?
A: Its value is 2 µg/mL.

Q: What about the “Minimum Bacteriostatic Concentration” value [9] of the same compound?
A: The value was greater than 128 µg/mL.

Q: What does the source list for `CO/N=C(\C(=O)N[C@@H]1C(=O)N2C(C(=O)O)=C(CSc3nc(=O)c(=O)[nH]n3C)CS[C@H]12)c1csc(N)n1` [Ceftriaxone sodium, ceftriaxone sodium]?
A: Minimum Bacteriostatic Concentration [1]: >128 µg/mL; Minimum Bacteriostatic Concentration [3]: 128 µg/mL; Minimum Bacteriostatic Concentration [4]: 16 µg/mL; Minimum Bacteriostatic Concentration [5]: 8 µg/mL; Minimum Bacteriostatic Concentration [6]: >128 µg/mL; Minimum Bacteriostatic Concentration [7]: >128 µg/mL; Minimum Bacteriostatic Concentration [8]: >128 µg/mL; Minimum Bacteriostatic Concentration [9]: >128 µg/mL

Q: With `COc1ccc(/C=C/C(=O)OCCc2ccc(O)c(O)c2)cc1` [(E)-3,4-dihydroxyphenethyl 3-(4-methoxyphenyl)acrylate] as the compound, how does the MIC ([1]; Staphylococcus aureus, drug-resistant MRSA, strain not named in the text (value matches 18-222)) read?
A: Its MIC is 4 µg/mL (≈ 12.7 µM).

Q: What about the “Minimum Bacteriostatic Concentration” value [1] of the same compound?
A: The value was 4 µg/mL.

Q: And the “inhibitory effect” value [2]?
A: The value was “excellent antibacterial activity”.

Q: And the MIC ([3]; Pseudomonas aeruginosa, MDR-PA, strain not named in the text (value matches 18-174))?
A: Its MIC is 8 µg/mL (≈ 25.5 µM).

Q: What about the “Minimum Bacteriostatic Concentration” value [3] of the same compound?
A: The value was 8 µg/mL.

Q: What about the “Minimum Bacteriostatic Concentration” value [4] of the same compound?
A: Its value is greater than 128 µg/mL.

Q: What about the “Minimum Bacteriostatic Concentration” value [5] of the same compound?
A: The value was greater than 128 µg/mL.

Q: And the “Minimum Bacteriostatic Concentration” value [6]?
A: Its value is greater than 128 µg/mL.

Q: What about the “Minimum Bacteriostatic Concentration” value [7] of the same compound?
A: Its value is greater than 128 µg/mL.

Q: What about the “Minimum Bacteriostatic Concentration” value [8] of the same compound?
A: Its value is 32 µg/mL.

Q: And the “Minimum Bacteriostatic Concentration” value [9]?
A: The value was greater than 128 µg/mL.
